According to the NIST ThermoML archive (doi:10.1021/acs.jced.8b00236):

Test: mn = molality of the nth substance listed, in mol/kg
Details: 75 kPa, Liquid; for viscosity: Capillary tube (Ostwald / Ubbelohde) method; for speed of sound: Frequency=3 MHz, Single path-length method; for mass density: Vibrating tube method

NCCCCCC(=O)O [6-aminohexanoic acid] + O
Details | mass density [kg/m3] | speed of sound [m/s] | viscosity [mPa·s]
288.15 K, m1 = 0.1386 | 1002.94 | 1484.1 | 1.237
288.15 K, m1 = 0.2786 | 1006.69 | 1501.7 | 1.324
288.15 K, m1 = 0.4193 | 1010.34 | 1518.8 | 1.43
288.15 K, m1 = 0.5602 | 1013.86 | 1535.5 | 1.543
288.15 K, m1 = 0.7027 | 1017.3 | 1551.7 | 1.676
288.15 K, m1 = 0.8448 | 1020.62 | 1566.7 | 1.804
288.15 K, m1 = 0.9881 | 1023.86 | 1581.4 | 1.945
288.15 K, m1 = 1.132 | 1026.99 | 1595.3 | 2.103
293.15 K, m1 = 0.1386 | 1001.94 | 1499.7 | 1.088
293.15 K, m1 = 0.2786 | 1005.61 | 1516.3 | 1.158
293.15 K, m1 = 0.4193 | 1009.17 | 1532.6 | 1.25
293.15 K, m1 = 0.5602 | 1012.62 | 1548.3 | 1.344
293.15 K, m1 = 0.7027 | 1016.01 | 1563.8 | 1.459
293.15 K, m1 = 0.8448 | 1019.28 | 1578.3 | 1.566
293.15 K, m1 = 0.9881 | 1022.48 | 1592.5 | 1.689
293.15 K, m1 = 1.132 | 1025.6 | 1606 | 1.825
298.15 K, m1 = 0.1386 | 1000.74 | 1513 | 0.962
298.15 K, m1 = 0.2786 | 1004.36 | 1529 | 1.025
298.15 K, m1 = 0.4193 | 1007.89 | 1544.6 | 1.103
298.15 K, m1 = 0.5602 | 1011.3 | 1559.8 | 1.183
298.15 K, m1 = 0.7027 | 1014.65 | 1574.6 | 1.277
298.15 K, m1 = 0.8448 | 1017.88 | 1588.6 | 1.377
298.15 K, m1 = 0.9881 | 1021.04 | 1602.2 | 1.481
298.15 K, m1 = 1.132 | 1024.11 | 1615.3 | 1.59
303.15 K, m1 = 0.1386 | 999.323 | 1524.5 | 0.865
303.15 K, m1 = 0.2786 | 1002.91 | 1539.8 | 0.916
303.15 K, m1 = 0.4193 | 1006.4 | 1554.7 | 0.984
303.15 K, m1 = 0.5602 | 1009.78 | 1569.1 | 1.062
303.15 K, m1 = 0.7027 | 1013.08 | 1583.2 | 1.137
303.15 K, m1 = 0.8448 | 1016.26 | 1596.8 | 1.222
303.15 K, m1 = 0.9881 | 1019.37 | 1610 | 1.314
303.15 K, m1 = 1.132 | 1022.39 | 1622.5 | 1.423
308.15 K, m1 = 0.1386 | 997.675 | 1534.6 | 0.781
308.15 K, m1 = 0.2786 | 1001.24 | 1549.2 | 0.821
308.15 K, m1 = 0.4193 | 1004.7 | 1563.5 | 0.881
308.15 K, m1 = 0.5602 | 1008.06 | 1577.4 | 0.949
308.15 K, m1 = 0.7027 | 1011.35 | 1591 | 1.02
308.15 K, m1 = 0.8448 | 1014.52 | 1603.9 | 1.096
308.15 K, m1 = 0.9881 | 1017.62 | 1616.4 | 1.177
308.15 K, m1 = 1.132 | 1020.64 | 1628.4 | 1.267

NCCCC(=O)O [4-aminobutanoic acid] + O
Details | mass density [kg/m3] | speed of sound [m/s] | viscosity [mPa·s]
288.15 K, m1 = 0.1389 | 1003.34 | 1478.5 | 1.204
288.15 K, m1 = 0.2788 | 1007.5 | 1490.3 | 1.252
288.15 K, m1 = 0.4194 | 1011.57 | 1501.8 | 1.313
288.15 K, m1 = 0.56 | 1015.51 | 1513 | 1.376
288.15 K, m1 = 0.702 | 1019.39 | 1523.9 | 1.452
288.15 K, m1 = 0.8449 | 1023.19 | 1534.5 | 1.515
288.15 K, m1 = 0.9892 | 1026.91 | 1544.8 | 1.591
288.15 K, m1 = 1.132 | 1030.5 | 1554.5 | 1.672
293.15 K, m1 = 0.1389 | 1002.43 | 1494.4 | 1.054
293.15 K, m1 = 0.2788 | 1006.57 | 1506 | 1.098
293.15 K, m1 = 0.4194 | 1010.61 | 1517.4 | 1.148
293.15 K, m1 = 0.56 | 1014.53 | 1528.5 | 1.206
293.15 K, m1 = 0.702 | 1018.37 | 1539.6 | 1.265
293.15 K, m1 = 0.8449 | 1022.12 | 1550.5 | 1.325
293.15 K, m1 = 0.9892 | 1025.79 | 1561.2 | 1.393
293.15 K, m1 = 1.132 | 1029.32 | 1571.5 | 1.464
298.15 K, m1 = 0.1389 | 1001.25 | 1508.1 | 0.936
298.15 K, m1 = 0.2788 | 1005.35 | 1519.3 | 0.975
298.15 K, m1 = 0.4194 | 1009.36 | 1530.3 | 1.022
298.15 K, m1 = 0.56 | 1013.22 | 1541.2 | 1.068
298.15 K, m1 = 0.702 | 1017.01 | 1551.9 | 1.125
298.15 K, m1 = 0.8449 | 1020.7 | 1562.2 | 1.178
298.15 K, m1 = 0.9892 | 1024.31 | 1572.5 | 1.243
298.15 K, m1 = 1.132 | 1027.75 | 1582.3 | 1.307
303.15 K, m1 = 0.1389 | 999.81 | 1520.1 | 0.835
303.15 K, m1 = 0.2788 | 1003.88 | 1530.9 | 0.874
303.15 K, m1 = 0.4194 | 1007.84 | 1541.6 | 0.91
303.15 K, m1 = 0.56 | 1011.67 | 1552.1 | 0.955
303.15 K, m1 = 0.702 | 1015.43 | 1562.4 | 0.994
303.15 K, m1 = 0.8449 | 1019.1 | 1572.4 | 1.037
303.15 K, m1 = 0.9892 | 1022.68 | 1582.3 | 1.095
303.15 K, m1 = 1.132 | 1026.12 | 1591.8 | 1.156
308.15 K, m1 = 0.1389 | 998.155 | 1530.4 | 0.753
308.15 K, m1 = 0.2788 | 1002.19 | 1540.9 | 0.788
308.15 K, m1 = 0.4194 | 1006.12 | 1551.3 | 0.822
308.15 K, m1 = 0.56 | 1009.94 | 1561.4 | 0.853
308.15 K, m1 = 0.702 | 1013.68 | 1571.3 | 0.894
308.15 K, m1 = 0.8449 | 1017.35 | 1581 | 0.94
308.15 K, m1 = 0.9892 | 1020.93 | 1590.6 | 0.991
308.15 K, m1 = 1.132 | 1024.37 | 1599.8 | 1.041
